Data from patent publication US10385108B2, “Peptide analogs of alpha-melanocyte stimulating hormone” (Genzyme Corporation, priority 2008, dated 2019).
Read-outs that look alike come from different tables or passages of the source. Where a SMILES comes first, the peptide text is derived from it. [ ]: non-standard residue; d: D form. dCha = N[C@H](CC1CCCCC1)C(=O)O

What was measured:
MC1R [1] = target: T1, MC1R (Homo sapiens, UniProt Q01726); set-up: purchased Perkin Elmer, Boston Mass; host or cells: HEK293 transfected cell lines (membrane preparations); settings: value quoted, not from Table 1; read-out: Ki MC1R (reported); cited from earlier work
[2] = test system: B16-F1 murine melanoma cells; assay: Intracellular cAMP in B16-F1 melanoma cells; assay type: cell-based; settings: for EC50: B16-F1 cells, 10^-4-10^-11 M, 30 min, IBMX
Protocol: B16-F1 (melanoma cell line) cells from American Type Culture Collection (Manassas, Va.) were seeded into flat bottom 96 well plates at 5×10^4/well and cultured overnight in DMEM (Cambrex, Walkersville, Md.) supplemented with 2 mM glutamine, antibiotics (100 U/ml penicillin and 100 […]) and 10% heat-inactivated fetal bovine serum (Invitrogen, Grand Island, N.Y.). […] Cells were lysed and intracellular cAMP levels were measured by an enzyme immunoassay kit (Amersham Biosciences, Piscataway, N.J.). Forskolin (Sigma, St. Louis, Mo.) at 100 μM served as positive controls.
cAMP levels in B16-F1 melanoma cells after treatment with native α-MSH, RI α-MSH, or a scrambled control peptide were examined. The […] melanoma cell line expresses a high number of MCR1 receptors (3000-4000 receptors/cell) compared with macrophages cell lines which express only 100-200 receptors/cell. Therefore we selected to examine the effect of the RI α-MSH treatment on the melanoma cell line. Murine melanoma B16-F1 cells were treated with native α-MSH, RI α-MSH, or control scrambled peptide at concentrations 1 pg/ml-1 μg/ml. After 30 min, cells were lysed and intracellular cAMP was measured by an enzyme immunoassay. […] However, a higher concentration of RI α-MSH (100 ng/ml) was necessary to increase cAMP compared with native α-MSH which increased cAMP at a 10 pg/ml concentration. This difference in concentration of peptide necessary to increase cAMP levels may be the result of the binding affinity to the MCR1 receptor.
Murine melanoma B16-F1 cells were treated with native α-MSH, RI α-MSH, scrambled peptide control, KPV, or alanine substituted peptides of RI α-MSH at 1 μg/ml (FIG. 7B). […] Peptides designated 810, 811, and 812 have alanine substitutions in the central core tetrapeptide sequence (D-Trp D-Arg D-Phe D-His region; AA 5-8) (variant disclosed in SEQ ID NO:2) proposed to be involved in native α-MSH binding to the melanocortin receptor and its biological activity. […] The residues in the core tetrapeptide (wrfh) (variant disclosed in SEQ ID NO:2) and to a lesser extent, the methionine 4 of RI-MSH are critical for binding to MC1R.
B16-F1 murine melanoma cells were cultured into 96 well plates 5×10^4 cells/well overnight in media with L-glutamine and pen/strep and FBS. Media was removed and new media with IBMX was added to the cells for 1 hr. Cells were then treated with RI α-MSH, or RI α-MSH peptide analogs (890, 891, 892, 893, 894 or 895). Cells were lysed after 30 min using a cAMP assay kit and supernatant were used in the assay. Forskolin at 10 μM served as positive controls.
Intracellular cAMP was measured using a cAMP competition Assay Kit (Amersham Biosciences). All cell lysate samples were diluted 1:100 for analysis.
Murine melanoma B16-F1 cells were treated with RI α-MSH, or RI α-MSH analogs (869, 872, 880, 878, 886 and 890-895) at a concentration range of 10^−4-10^−11 M. cAMP levels from cells treated with RI α-MSH, or RI α-MSH analogs. […] See FIG. 22 for graphical data and Table 2 for EC50 data.

MC1R [3] = target: T1, MC1R; assay: Competitive binding with 125I-NDP-MSH, HEK293 membrane preparations, MC1R; settings: for Ki: Ki MC1R, competition with 125I-NDP-MSH;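 on all read-outs here: Read-out: receptor-bound radioligand retained by filtration and counted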
Protocol: (§1) Binding analysis was done by Cerep laboratories (Paris, France) with coded samples.
(§2) The mixtures were filtered through 96-well GFC filters (Millipore, Billerica, Mass.), washed 3 times with binding buffer without BSA, dried and counted.
(§3) A competitive binding assay using a MCR panel including MCR 1, 3, 4, and 5 was performed.

MC3R = MC3R (Homo sapiens, UniProt P41968); assay: Competitive binding with 125I-NDP-MSH, HEK293 membrane preparations, MC3R
Protocol: as §1, §2, §3

MC4R = MC4R (Homo sapiens, UniProt P32245); assay: Competitive binding with 125I-NDP-MSH, HEK293 membrane preparations, MC4R
Protocol: as §1, §2, §3

MC5R = MC5R (Homo sapiens, UniProt P33032); assay: Competitive binding with 125I-NDP-MSH, HEK293 membrane preparations, MC5R; settings: Ki MC5R, competition with 125I-NDP-MSH; cells noted in μM
Protocol: as §1, §2, §3

C57BL/6 mice = assay: LPS inflammation mouse model, serum cytokines; assay type: in vivo; settings: i.p. 30 min after LPS, serum at 2 h
Protocol: Male C57BL/6 mice were challenged with LPS (1 ug/mouse), i.p. After 30 min mice were treated with dexamethasone (2 mg/kg; Sigma), RI-α-MSH analog 891, or RI-α-MSH. At 2 hrs after LPS challenge, mice were bled for serum. Cytokine analysis was measured by flow cytometry with a cytometric bead array kit (BD Biosciences).
C57BL/6 mice were injected with LPS, i.p. and 30 minutes later native α-MSH or RI α-MSH analog 891 was administered i.p. at doses ranging from 5 mg/kg to 0.156 mg/kg. RI α-MSH analog 891 is an analog of RI α-MSH in which d-Cha and hsiiss D-amino acids were added to the core peptide sequence. […] MCP-1 was not affected by native α-MSH treatment (FIG. 16B).

mouse MC1R = mouse MC1R (Mus musculus, UniProt Q01727); assay: Binding affinity to mouse MC1R (data not shown)
[4] = peptides 5 to 0.156 mg/kg, dexamethasone 2 mg/kg

MC3R, sequence (P41968 whole entry): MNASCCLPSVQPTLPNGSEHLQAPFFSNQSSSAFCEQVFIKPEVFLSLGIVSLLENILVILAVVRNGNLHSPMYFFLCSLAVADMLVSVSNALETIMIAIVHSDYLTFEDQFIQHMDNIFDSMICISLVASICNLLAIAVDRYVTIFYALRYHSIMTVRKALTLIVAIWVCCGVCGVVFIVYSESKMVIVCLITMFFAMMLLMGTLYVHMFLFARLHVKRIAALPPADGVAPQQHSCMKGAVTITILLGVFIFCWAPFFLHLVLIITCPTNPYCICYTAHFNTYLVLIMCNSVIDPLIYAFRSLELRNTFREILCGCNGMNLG
T1 sequence (Q01726 whole entry): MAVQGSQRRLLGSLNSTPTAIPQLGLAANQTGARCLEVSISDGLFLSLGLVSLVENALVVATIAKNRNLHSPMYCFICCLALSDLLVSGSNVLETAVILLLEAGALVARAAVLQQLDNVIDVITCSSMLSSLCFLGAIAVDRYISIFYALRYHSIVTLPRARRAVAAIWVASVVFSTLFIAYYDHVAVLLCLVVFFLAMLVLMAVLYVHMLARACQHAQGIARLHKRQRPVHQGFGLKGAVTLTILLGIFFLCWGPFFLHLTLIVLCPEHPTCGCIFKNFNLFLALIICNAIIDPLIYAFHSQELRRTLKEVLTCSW
MC4R, sequence (P32245 whole entry): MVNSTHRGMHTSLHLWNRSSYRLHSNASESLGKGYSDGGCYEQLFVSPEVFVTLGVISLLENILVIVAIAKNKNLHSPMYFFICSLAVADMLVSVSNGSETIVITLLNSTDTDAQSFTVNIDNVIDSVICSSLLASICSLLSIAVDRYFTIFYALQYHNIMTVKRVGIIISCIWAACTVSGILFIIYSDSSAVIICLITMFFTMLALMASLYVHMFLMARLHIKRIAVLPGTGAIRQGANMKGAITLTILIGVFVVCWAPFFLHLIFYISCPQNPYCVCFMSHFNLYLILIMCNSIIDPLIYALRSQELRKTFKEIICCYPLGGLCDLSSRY
MC5R, sequence (P33032 whole entry): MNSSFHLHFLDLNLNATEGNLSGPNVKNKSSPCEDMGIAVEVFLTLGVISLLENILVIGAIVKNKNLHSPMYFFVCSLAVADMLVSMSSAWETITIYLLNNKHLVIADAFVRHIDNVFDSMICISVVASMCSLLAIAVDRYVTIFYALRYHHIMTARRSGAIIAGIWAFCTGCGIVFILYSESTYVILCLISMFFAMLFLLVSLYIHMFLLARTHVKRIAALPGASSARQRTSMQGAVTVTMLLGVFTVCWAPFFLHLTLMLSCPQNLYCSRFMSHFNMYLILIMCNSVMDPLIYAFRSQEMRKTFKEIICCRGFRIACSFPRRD
mouse MC1R, sequence (Q01727 whole entry): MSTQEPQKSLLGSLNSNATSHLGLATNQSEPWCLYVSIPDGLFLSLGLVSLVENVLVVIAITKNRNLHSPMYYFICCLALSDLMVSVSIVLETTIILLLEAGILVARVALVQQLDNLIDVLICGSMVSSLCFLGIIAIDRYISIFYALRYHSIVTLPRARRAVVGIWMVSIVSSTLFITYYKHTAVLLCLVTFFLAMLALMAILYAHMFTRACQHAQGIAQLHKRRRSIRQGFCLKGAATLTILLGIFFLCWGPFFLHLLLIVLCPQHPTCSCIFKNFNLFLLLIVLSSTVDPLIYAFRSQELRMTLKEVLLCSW

Compound	Ki (MC1R [1]) [pM]	EC50 [2] [µM]	Ki (MC1R [3]) [µM]	Ki (MC3R) [µM]	Ki (MC4R) [µM]	Ki (MC5R) [µM]	potency to stimulate cAMP (in words) ([2]; data not shown)	serum IL-10 vs vehicle (in words) (C57BL/6 mice; 5 to 0.156 mg/kg)	serum MCP-1 vs vehicle (in words) (C57BL/6 mice; [4])	serum TNF-α vs vehicle (in words) (C57BL/6 mice; [4])	binding affinity to mouse MC1R (in words) (mouse MC1R)	affinity for MC1R compared with parent peptide (in words) (MC1R [3])
NC(=O)[C@H](Cc1c[nH]c2ccccc12)NC(=O)[C@H](CCCN=C(N)N)NC(=O)[C@@H](Cc1ccccc1)NC(=O)[C@H](Cc1cnc[nH]1)NC(=O)CCCc1ccccc1 [compound 819, (Ph(CH2)3CO) HfRW]	6	–	–	–	–	–	–	–	–	–	–	–
CSCC[C@@H](NC(=O)[C@@H](CCC(=O)O)NC(=O)[C@@H](Cc1c[nH]cn1)NC(=O)[C@@H](CC1CCCCC1)NC(=O)[C@@H](CCCNC(=N)N)NC(=O)[C@@H](Cc1c[nH]c2ccccc12)NC(=O)CNC(=O)[C@@H](CCCCN)NC(=O)[C@H]1CCCN1C(=O)[C@H](NC(C)=O)C(C)C)C(=O)N[C@H](CO)C(=O)N[C@H](Cc1ccc(O)cc1)C(=O)N[C@H](CO)C(N)=O [compound 869, vpkGwr(D-Cha)hemsys]	–	0.014	0.0022	> 30	> 10	~25	–	–	–	–	–	–
CC[C@@H](C)[C@@H](NC(=O)[C@@H](CO)NC(=O)[C@@H](Cc1c[nH]cn1)NC(=O)[C@H](Cc1ccccc1)NC(=O)[C@@H](CCCNC(=N)N)NC(=O)[C@@H](Cc1c[nH]c2ccccc12)NC(=O)CNC(=O)[C@@H](CCCCN)NC(=O)[C@H]1CCCN1C(=O)[C@H](NC(C)=O)C(C)C)C(=O)N[C@@H](C(=O)N[C@H](CO)C(=O)N[C@H](CO)C(N)=O)[C@H](C)CC [compound 880, vpkGwrFhsiiss] (Ac-[dV][dP][dK]G[dW][dR]F[dH][dS][dI][dI][dS][dS]-NH2)	–	0.023	0.0018 ± 0.0035	~18	~10	> 30	–	–	–	–	–	–
CC[C@@H](C)[C@@H](NC(=O)[C@@H](CO)NC(=O)[C@@H](Cc1c[nH]cn1)NC(=O)[C@@H](Cc1ccccc1)NC(=O)[C@@H](CCCNC(=N)N)NC(=O)[C@@H](Cc1c[nH]c2ccccc12)NC(=O)CNC(=O)[C@@H](CCCCN)NC(=O)[C@H]1CCCN1C(=O)[C@H](NC(C)=O)C(C)C)C(=O)N[C@@H](C(=O)N[C@H](CO)C(=O)N[C@H](CO)C(N)=O)[C@H](C)CC [compound 886, vpkgwrfhsiiss] (Ac-[dV][dP][dK]G[dW][dR][dF][dH][dS][dI][dI][dS][dS]-NH2)	–	0.002	0.001	~19	~10	~20	–	–	–	–	–	–
CCCCSCC[C@@H](NC(=O)[C@@H](CCC(=O)O)NC(=O)[C@@H](Cc1c[nH]cn1)NC(=O)[C@@H](CC1CCCCC1)NC(=O)[C@@H](CCCNC(=N)N)NC(=O)[C@@H](Cc1c[nH]c2ccccc12)NC(=O)CNC(=O)[C@@H](CCCCN)NC(=O)[C@H]1CCCN1C(=O)[C@H](NC(C)=O)C(C)C)C(=O)N[C@H](CO)C(=O)N[C@H](Cc1ccc(O)cc1)C(=O)N[C@H](CO)C(N)=O [compound 890, vpkGwr(D-Cha)he(d-Buthionine)sys]	–	–	0.0019	~15	~14	~4.5	–	–	–	–	–	–
CC[C@@H](C)[C@@H](NC(=O)[C@@H](CO)NC(=O)[C@@H](Cc1c[nH]cn1)NC(=O)[C@@H](CC1CCCCC1)NC(=O)[C@@H](CCCNC(=N)N)NC(=O)[C@@H](Cc1c[nH]c2ccccc12)NC(=O)CNC(=O)[C@@H](CCCCN)NC(=O)[C@H]1CCCN1C(=O)[C@H](NC(C)=O)C(C)C)C(=O)N[C@@H](C(=O)N[C@H](CO)C(=O)N[C@H](CO)C(N)=O)[C@H](C)CC [compound 891, vpkGwr(D-Cha)hsiiss] (Ac-[dV][dP][dK]G[dW][dR][dCha][dH][dS][dI][dI][dS][dS]-NH2)	–	0.081	0.00043 ± 1e-05	~8	~3.2	~2.5	increased potency to stimulate cAMP	significant decrease	no affect	significant decrease	increased binding affinity	indistinguishable from MSH
